{
  "source": "paper PMC6747129",
  "about": "(International Journal of Molecular Sciences, 2019)",
  "key": {"CYP3A4 [1]": {"molecular_target": "T1, CYP3A4 (Homo sapiens, UniProt P08684)", "T1 sequence (P08684 whole entry)": "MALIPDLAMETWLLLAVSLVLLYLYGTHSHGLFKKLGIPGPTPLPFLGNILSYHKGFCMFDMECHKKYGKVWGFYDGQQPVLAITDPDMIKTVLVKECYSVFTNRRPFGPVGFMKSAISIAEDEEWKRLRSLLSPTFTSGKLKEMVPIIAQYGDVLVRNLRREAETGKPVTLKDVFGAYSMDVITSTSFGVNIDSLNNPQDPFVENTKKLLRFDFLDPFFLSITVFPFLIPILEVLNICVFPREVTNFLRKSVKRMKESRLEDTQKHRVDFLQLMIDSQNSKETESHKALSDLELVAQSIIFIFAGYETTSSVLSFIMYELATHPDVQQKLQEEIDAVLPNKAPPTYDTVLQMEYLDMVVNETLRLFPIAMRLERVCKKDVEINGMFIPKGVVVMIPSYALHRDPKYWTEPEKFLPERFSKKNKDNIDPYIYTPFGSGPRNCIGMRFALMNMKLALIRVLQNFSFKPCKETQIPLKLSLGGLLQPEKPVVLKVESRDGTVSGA"}, "CYP3A4 [2]": {"molecular_target": "T1, CYP3A4", "assay": "biochemical"}, "[3]": {"system": "microsomal and recombinant CYP3A4", "conditions": "reversible and mechanism-based inhibition of CYP3A4; cited from earlier work"}, "CYP3A4 [4]": {"molecular_target": "T1, CYP3A4", "assay": "in vitro", "conditions": "pH 7.4"}},
  "data": [
    {"smiles": "C/C(=C\\COc1c2ccoc2cc2oc(=O)ccc12)CCC(O)C(C)(C)O", "note": "(stereo not shown) [DHB, 6′,7′-dihydroxybergamottin]", "values": [
      {"measurement": "share of the total absorbance decrease (Soret band) due to occupation of the high affinity site", "setting": "CYP3A4 [1]; DHB titration, two-site fit", "result": "~ 17%"},
      {"measurement": "Kd", "setting": "CYP3A4 [2]", "result": "0.22 ± 0.03", "unit": "µM"},
      {"measurement": "IC50", "setting": "[3]", "result": "2 to 23", "unit": "µM"},
      {"measurement": "Kd", "setting": "CYP3A4 [4]", "result": "10.3 ± 1.4", "unit": "µM"}
    ]},
    {"smiles": "CC(C)=CCC/C(C)=C/COc1c2ccoc2cc2oc(=O)ccc12", "note": "[bergamottin]", "values": [
      {"measurement": "n, Hill coefficient", "setting": "CYP3A4 [1]; sigmoidal fit of titration curve, ligand-free CYP3A4", "result": 1.8},
      {"measurement": "Kd", "setting": "CYP3A4 [2]", "result": "3 ± 0.3", "unit": "µM"},
      {"measurement": "IC50", "setting": "[3]", "result": "2 to 23", "unit": "µM"}
    ]}
  ]
}
